From publication PMC9413201, “Covalent Proteomimetic Inhibitor of the Bacterial FtsQB Divisome Complex” (Journal of the American Chemical Society, 2022)
Numbered stars: 1 amine (or outer) side, 2 acyl side, 3 side chain; on linkers, the order of the positions; unused ones are H or OH. Bridge positions count the residues as written; N and C are the ends. Square brackets hold non-standard residues; d marks the D form. Peptide text beside a SMILES is read from it. * marks the point of attachment. X1 = O=C([C@H](CCCCCC=[*:3])N[*:1])[*:2]; Nle = CCCC[C@H](N)C(=O)O; BrAc = O=C(CBr)*

How the values were obtained:
[1] = test system: E. coli lptD4213 (imp); experiment: Growth assay (OD600) with outer membrane-permeable E. coli lptD4213 (imp); format: cell-based
Procedure: Growth assays were performed to assess the in vitro cytotoxicity of peptides. The experiments were executed under sterile conditions. For each assay, 20 mL of fresh MOPS medium was prepared (Teknova Inc MOPS EZ Rich Defined Medium Kit | M2105: 40 mM MOPS, 4 mM Tricine, 0.01 mM FeSO4, 9.5 mM NH4Cl, 0.276 mM […]
MOPS medium with Streptomycin (30 μg/mL) and incubated overnight at 200 rpm and 37°C. The next day, the […]
peptide stocks in DMSO were diluted to four times the desired highest concentration to be measured in MOPS medium. The peptide dilutions were vortexed and briefly centrifuged. 50 μL of MOPS medium was added to each well of a Corning® 96-well Clear Flat Bottom Polystyrene TC-treated Microplate. A twofold dilution series was performed by adding 50 μL of the diluted peptide to the top row, mixing it and taking 50 μL to the next row. At each step the solution was resuspended five times. This was repeated until the last row which was skipped in order to obtain a reference measurement. After 2-3 h, the E.coli lptD4213 (imp) pre-culture was diluted to an OD600 of 0.00005. Then, 50 μL of diluted culture were added to each well and the plate sealed using a lid and parafilm. The OD600 was measured every 15 min over a period of more than 20 h (continuously shaking, 37°C) using a BioTek Synergy H1 plate reader. The obtained data were analyzed and relative growth curves plotted with GraphPad Prism 8. The assays were performed as technical triplicates. A single overnight pre-culture was used to prepare the diluted MOPS culture used in the growth assay. […]

[2] = test system: E. coli 87; format: cell-based, Escherichia coli
Procedure: 1.11 Checkerboard synergy assay
As described by Hsieh et al.,6 two-fold dilution series of cationic peptides were made in polypropylene microtiter plates (Ratiolab, L6018123, Dreieich, Germany) in 50 μL volume of MOPS medium/2% DMSO. Primary clinical isolates of Escherichia coli 87 were provided by Dr. Karin van Dijk, Amsterdam UMC. In a similar manner, two-fold dilution series of 17fα were made in polystyrene microtiter plates (Costar, REF3779, Corning NY, United States) in 70 μL volume of MOPS medium. Then, 50 μL of the 17fα series was transferred to the L8S1 containing polypropylene plate, resulting in a checkerboard titration of a L8S1 on the vertical axis and an 17fα on the horizontal axis. Mid-log phase cultures were diluted to OD600 0.1 and 10 μL culture was added to each well of the microtiter plate, resulting in a total volume of 110 μL and an OD600 of ~0.01 ([…]), and the OD600 was measured every 15 min for 12 h using the microplate reader. First, the MIC values of the compounds alone were determined as described previously. Similarly, the MIC values of the compound combination were determined (the fractional inhibitory concentrations (FIC))6. With these MIC values and FIC values, the fractional inhibitory concentration index (FICindex) was calculated as follows:
FIC = FICantibiotic + FICpeptide (1) […]

[3] = Toxicity test in uninfected zebrafish larvae; settings: 15 zebrafish per condition, L8S1 3.125 µM, 17fα 70 µM, n = 1 replicate
[4] = target: FtsQ(50–276) (Escherichia coli, UniProt P06136); format: biochemical, E. coli; set-up: pET16b FtsQ(50˗276), a His6 fusion; made in house; host or cells: Escherichia coli BL21 DE3; settings: peptide 125 μM, FtsQ(50–276) 50 μM, 37 °C, 1 or 3 h
Procedure: 1.5 Protein modification assay
To determine the reactivity of the different modifiers FtsQ(50˗276) was diluted to a concentration of 100 µM in 20 mM NH4HCO3 buffer (pH 7.6, 150 mM NaCl). The individual peptides were diluted to a concentration of 250 μM in the same buffer. Equal volumes of both solutions were mixed and incubated at 37 °C for the given time period (1 h or 3 h). The reaction was quenched using 5x SDS sample buffer (pH 6.8, 1.875 g TRIS-Cl, 25 mL glycerol, 5 g SDS, 12.5 mL β-mercaptoethanol, 0.5 % bromphenol blue and add 50 mL ddH2O). Samples were heated to 96 °C for 2 min and subsequently analysed by 17 % tris/tricine PAGE (15 min at 90 V and then 3:45 h at 150 V). PageRuler™ Prestained Protein Ladder, 10 to 180 kDa (Thermo Scientific™) was used as a ladder.
Staining was performed using standard Coomassie Staining Solution (40 mL EtOH, 0.3 g Coomassie Blue R250, 0.3 g Coomassie Blue G250, ad 100 mL ddH2O.) and then destained using water.
17 % Tris/Tricine gel (2x):
Running gel: 1.6 mL H2O, 5.5 mL AB-mix, 2.5 mL Buffer A, 100 μL 10% APS, 10 μL 1% TEMED Stacking gel: 2.1 mL H2O, 0.5 mL AB-mix, 0.38 mL Buffer A, 50 μL 10% APS, 5 μL 1% TEMED […]
Buffer A (4x) pH 8.45 3M Tris, 0.3 % SDS; Anode Buffer (10x) pH 8.8, 3M Tris; Cathode buffer (10x) 1M Tris, […]

Sequence of FtsQ(50–276) (P06136 50-276): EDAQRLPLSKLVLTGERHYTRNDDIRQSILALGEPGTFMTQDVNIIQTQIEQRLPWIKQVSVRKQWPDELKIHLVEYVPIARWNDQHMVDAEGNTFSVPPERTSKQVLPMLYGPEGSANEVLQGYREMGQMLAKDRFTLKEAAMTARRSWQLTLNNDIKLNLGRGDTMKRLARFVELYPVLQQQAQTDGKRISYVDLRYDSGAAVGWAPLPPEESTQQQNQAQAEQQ

SMILES: CCCC[C@@H]1NC(=O)[C@H](CO)NC(=O)[C@H](CC(C)C)NC(=O)[C@H](CCC(=O)O)NC(=O)[C@H](CC(N)=O)NC(=O)[C@@H](NC(=O)[C@H](C)NC(C)=O)CCCCCC=CCCCCC[C@@H](C(=O)N[C@@H](CCCCNC(=O)CBr)C(=O)N[C@@H](Cc2ccccc2)C(=O)N[C@@H](Cc2ccc(O)cc2)C(=O)N[C@@H](CCCNC(=N)N)C(=O)N[C@@H](CC(C)C)C(N)=O)NC(=O)CNC(=O)[C@@H]2CCCN2C(=O)[C@H](CCCNC(=N)N)NC(=O)[C@H]([C@@H](C)O)NC1=O [17fα] (Ac-A[X1]NELS[Nle]TRPG[X1]K(BrAc)FYRL-NH2; staple 2-12)
- lowest concentration with inhibitory effect on growth ([1]; concentration-dependent effect on growth after 15 h, highest tested concentration 100 μM, n = 3 replicates): 12.5 µM
- effect on bacterial growth (OD600) ([1]; inhibitor c = 50 μM, OD600 every 15 min over 22 h, n = 3 technical replicates): prevents bacterial growth
- FICindex (fractional inhibitory concentration index) ([2]; 17fα in combination with L8S1, checkerboard synergy assay, OD600 after 12 h, MIC = 90% growth inhibition, from averages of MICs (L8S1 n = 3, 17fα n = 5), ≤ 0.5 synergistic): 0.33
- inhibitor concentration required for growth inhibition ([2]; clinical multidrug-resistant E. coli 87, MOPS medium, OD600): > 100 µM
- Surviving zebrafish, Day 1 [3]: 15
- Surviving zebrafish, Day 2 [3]: 15
- specificity of FtsQ(50–276) modification (number of up-shifted bands) [4]: robust and selective covalent modification
